In patent US10059694B2, “2-aminopyrimidine compound and pharmaceutical composition and use thereof” (Shanghai Institute of Materia Medica, Chinese Academy of …, priority 2014, dated 2018):

Columns and labels:
EGFR^wt = molecular target: T1, EGFR^wt (Homo sapiens, UniProt P00533); test: kinase inhibitory activity test (ELISA), EGFR^WT; format: biochemical; conditions: ATP 5 μM, 1 hour at 37° C.
T1 construct: purchased Millipore
Method in brief: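 ELISA on poly(Glu,Tyr)4:1-coated plates; kinase reaction with 5 μM ATP (final) in 50 mM HEPES pH 7.4, 50 mM MgCl2, 5 mM MnCl2, 0.2 mM Na3VO4, 1 mM DTT, 1 h at 37° C. Phosphotyrosine detected via PY99/HRP and OPD at 490 nm; IC50 by four-parameter fit.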

[1] = tested on: human epidermal carcinoma A431 cell line; test: SRB proliferation assay, A431 cells; format: cell-based; conditions: A-431, SRB, 72 h, read-out: IC50 A431
Method in brief: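 A431 cells in log phase are allowed to adhere for 24 h, then exposed to compound for 72 h in triplicate alongside DMSO controls. Cells are fixed with cold 10% TCA, stained with SRB, dye is solubilised in 10 mM Tris pH 10.5, and OD is read at 515 nm.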

[2] = tested on: phosphorylation of EGFR^T790M/L858R, AKT and ERK in NCI-H1975 cells; test: Western blot, EGFR phosphorylation and downstream signaling in NCI-H1975 cells; format: cell-based, human; conditions: FIG. 1
Procedure: (§1) The tests were performed using conventional Western Blot (immunoblotting test), as follows. A certain number of A431 cells and NCI-H1975 cells in the logarithmic growth phase were inoculated on 6-well plate and adherent cultured overnight in the incubator. Replaced with serum-free medium and starved for 24 h, a certain concentration of compound was added and reacted for 2 h. 50 ng/mL of EGF stimulating factor was added and reacted for 10 min. The cells were lysed with lysate and samples were collected, and then the samples were taken for SDS-PAGE electrophoresis. After electrophoresis, the protein was transferred to a nitrocellulose membrane by a semi-dry transfer system. The nitrocellulose membrane was placed in a blocking solution (5% skimmed milk diluted with TBS containing 0.1% Tween 20) for 2 h at room temperature, and then incubated overnight at 4° C. in a primary antibody solution (diluted with TBS containing 0.1% Tween 20 by 1:500). It was washed for three times with TBS containing 0.1% Tween 20 for 15 min each time. The membrane was placed in a secondary antibody solution (horseradish peroxidase labeled goat anti-rabbit IgG, diluted with TBS containing 0.1% Tween 20 by 1:2000) and reacted for 1 h at room temperature. After washed for three times as above, the membrane was dyed with ECL plus reagent and photoed using image Quant LAS 4000 camera.

[3] = tested on: phosphorylation of EGFR^wt in A431 cells; test: Western blot, EGFR phosphorylation in A431 cells; format: cell-based, human; conditions: FIG. 2
Procedure: as §1

[4] = tested on: human lung cancer NCI-H1975 nude mice subcutaneous xenografts; test: NCI-H1975 nude mice subcutaneous xenograft; format: in vivo
Procedure: The tumor tissue in the growth stage was taken and cut into small pieces of about 1.5 mm^3, which were inoculated subcutaneously in nude mice under aseptic conditions. When the tumor was grown to about 100 mm^3, nude mice were random allocated. […] The mice were gavage administered once a day for 11 days, and the solvent control group (injection water containing 1% Tween 80) was set. During the whole experiment, the diameter of the transplanted tumor was measured twice a week with a vernier caliper and the weights of the mice were weighed. The volume of tumor was calculated as follows: TV=½×a×b^2 (Where a,b respectively represent long and wide)

T1 sequence (P00533 25-1210): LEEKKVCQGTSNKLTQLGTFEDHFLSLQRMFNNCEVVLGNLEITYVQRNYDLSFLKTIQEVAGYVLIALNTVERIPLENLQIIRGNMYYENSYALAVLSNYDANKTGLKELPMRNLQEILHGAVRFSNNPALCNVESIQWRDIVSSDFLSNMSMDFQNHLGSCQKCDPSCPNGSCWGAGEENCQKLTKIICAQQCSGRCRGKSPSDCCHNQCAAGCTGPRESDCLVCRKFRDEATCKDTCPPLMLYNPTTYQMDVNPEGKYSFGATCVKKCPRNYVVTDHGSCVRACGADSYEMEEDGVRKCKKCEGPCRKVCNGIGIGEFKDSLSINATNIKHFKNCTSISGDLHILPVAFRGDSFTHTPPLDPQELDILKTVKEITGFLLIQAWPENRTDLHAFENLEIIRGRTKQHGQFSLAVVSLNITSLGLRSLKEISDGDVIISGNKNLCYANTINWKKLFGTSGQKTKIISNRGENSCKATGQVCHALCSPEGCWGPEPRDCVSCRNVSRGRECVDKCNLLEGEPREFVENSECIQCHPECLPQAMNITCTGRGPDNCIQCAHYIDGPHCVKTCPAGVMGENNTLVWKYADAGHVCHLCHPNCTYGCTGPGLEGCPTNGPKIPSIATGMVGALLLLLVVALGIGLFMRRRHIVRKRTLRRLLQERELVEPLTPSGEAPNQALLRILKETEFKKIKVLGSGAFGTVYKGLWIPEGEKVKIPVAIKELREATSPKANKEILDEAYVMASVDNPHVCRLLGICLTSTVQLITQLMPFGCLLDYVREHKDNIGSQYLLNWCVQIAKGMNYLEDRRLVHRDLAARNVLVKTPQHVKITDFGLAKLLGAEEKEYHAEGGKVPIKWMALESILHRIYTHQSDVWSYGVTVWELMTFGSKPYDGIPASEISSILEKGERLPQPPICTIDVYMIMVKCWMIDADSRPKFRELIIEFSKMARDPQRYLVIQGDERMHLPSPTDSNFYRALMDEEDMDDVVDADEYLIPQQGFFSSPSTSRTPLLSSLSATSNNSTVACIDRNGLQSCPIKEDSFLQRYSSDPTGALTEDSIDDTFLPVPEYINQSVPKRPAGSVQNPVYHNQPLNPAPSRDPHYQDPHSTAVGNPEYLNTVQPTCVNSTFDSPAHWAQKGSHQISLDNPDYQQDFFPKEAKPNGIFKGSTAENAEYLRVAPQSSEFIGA

- IC50 (EGFR^wt): 0.0094 µM
- IC50 [1]: 0.134 µM
Structure (SMILES): C=CC(=O)Nc1cc(Nc2ncc(Cl)c(Nc3ccc4ccccc4c3)n2)c(OC)cc1N(C)CCN(C)C [CCB120067, N-((5-((5-chloro-4-((naphthalen-2-yl)amino))pyrimidin-2-yl)amino)-2-((N-methyl-N-dimethylaminoethyl)amino)-4-methoxyphenyl)acrylamide]
- inhibition of phosphorylation of EGFR^T790M/L858R and activation of AKT and ERK ([2]; 2 h compound, EGF 50 ng/mL 10 min): significantly inhibit
- inhibitory activity on phosphorylated EGFR^T790M/L858R, Akt and Erk compared with CO1686 ([2]; CCB120067 at 1 nM): comparable or slightly better than that of CO1686 at 100 nM concentration
- inhibitory activity on phosphorylation of EGFR^wt [3]: weaker
- inhibition of tumor growth ([4]; 10 mg/kg gavage once a day for 11 days, FIG. 3): significantly inhibit
- tumor regression ([4]; 10 mg/kg gavage, after 7 days of administration): completely subsided
- inhibitory activity on tumor growth compared with positive control ([4]; CCB120067 10 mg/kg versus CO1686 100 mg/kg): stronger than anti-tumor effect of CO1686 at 100 mg/kg dose
